US20240041042A1, “1-(PYRIDYL)-5-AZINYLPYRAZOLE DERIVATIVES, AND THEIR USE FOR CONTROL OF UNDESIRED PLANT GROWTH” (Bayer Aktiengesellschaft, priority 2020, published 2024)
Where two headings read alike, the source gives them in different places.

Legend:
Type in all cases: in vivo
[1] = system: Abutilon theophrasti (ABUTH); assay: Pre-emergence herbicidal action against ABUTH; conditions: Dosage column 320 g/ha (title prints 3200 g/ha); scored visually after about 3 weeks; 100% = plants have died
Excerpt: Seeds of monocotyledonous and dicotyledonous weed plants and crop plants are placed in plastic or organic planting pots and covered with soil. The compounds of the invention, formulated in the form of wettable powders (WP) or as emulsion concentrates (EC), are then applied to the surface of the covering soil as aqueous suspension or emulsion with addition of 0.5% additive at a water application rate equivalent to 600 l/ha. After the treatment, the pots are placed in a greenhouse and kept under good growth conditions for the trial plants. After about 3 weeks, the effect of the preparations is scored visually in comparison with untreated controls as percentages. For example, 100% activity=the plants have died, 0% activity=like control plants.
Tables A1 to A13 below show the effects of selected compounds of the general formula (I) on various harmful plants and at an application rate corresponding to 320 g/ha or lower, which were obtained by the experimental procedure mentioned above. The appendices “a”, “b” and “c” give differentiation by dosage used with otherwise the same harmful plants tested.

[2] = system: Alopecurus myosuroides (ALOMY); assay: Pre-emergence herbicidal action against ALOMY; conditions: scored visually after about 3 weeks, 100% = plants have died
Method in brief: (§1)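 Dosages of 320 g/ha or less; pre-emergence; WP or EC in aqueous spray, 0.5% additive, 600 l/ha; greenhouse; visual % effect after ~3 wk relative to control pots.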

[3] = system: Amaranthus retroflexus (AMARE); assay: Pre-emergence herbicidal action against AMARE; conditions: visual scoring after about 3 weeks vs untreated controls
Method in brief: as §1

Avena fatua (AVEFA) [4] = assay: Pre-emergence herbicidal action against AVEFA; conditions: visual scoring after about 3 weeks vs untreated controls
Method in brief: as §1

[5] = system: Echinochloa crus-galli (ECHCG); assay: Pre-emergence herbicidal action against ECHCG
Method in brief: as §1

Lolium rigidum (LOLRI) [6] = assay: Pre-emergence herbicidal action against LOLRI
Method in brief: as §1

[7] = system: Pharbitis purpurea (PHBPU); assay: Pre-emergence herbicidal action against PHBPU
Method in brief: as §1

[8] = system: Polygonum convolvulus (POLCO); assay: Pre-emergence herbicidal action against POLCO
Method in brief: as §1

[9] = system: Verconica persica (VERPE); assay: Pre-emergence herbicidal action against VERPE
Method in brief: as §1

Viola tricolor (VIOTR) [10] = assay: Pre-emergence herbicidal action against VIOTR
Method in brief: as §1

[11] = system: Abutilon theophrasti (ABUTH); assay: Post-emergence herbicidal action against ABUTH; conditions: 320 g/ha, visual rating about 3 weeks after treatment vs untreated controls (100% = plants have died, 0% = like control plants)
Method in brief: (§2)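 Rates were 320 g/ha or below, applied as aqueous WP/EC spray with 0.5% additive (600 l/ha) onto one-leaf-stage plants. About 3 weeks later in the greenhouse, damage was scored visually against untreated plants on a 0–100% scale, where 100% means plants died.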

[12] = system: Alopecurus myosuroides (ALOMY); assay: Post-emergence herbicidal action against ALOMY; conditions: visual rating about 3 weeks after treatment vs untreated controls (100% = plants have died, 0% = like control plants)
Method in brief: as §2

[13] = system: Amaranthus retroflexus (AMARE); assay: Post-emergence herbicidal action against AMARE
Method in brief: as §2

Avena fatua (AVEFA) [14] = assay: Post-emergence herbicidal action against AVEFA; conditions: visual rating about 3 weeks after treatment
Method in brief: as §2

[15] = system: Echinochloa crus-galli (ECHCG); assay: Post-emergence herbicidal action against ECHCG
Method in brief: as §2

Lolium rigidum (LOLRI) [16] = assay: Post-emergence herbicidal action against LOLRI
Method in brief: as §2

[17] = system: Pharbitis purpurea (PHBPU); assay: Post-emergence herbicidal action against PHBPU
Method in brief: as §2

[18] = system: Polygonum convolvulus (POLCO); assay: Post-emergence herbicidal action against POLCO; conditions: dosage 320 g/ha
Method in brief: as §2

Setaria viridis (SETVI) [19] = assay: Post-emergence herbicidal action against SETVI
Method in brief: as §2

[20] = system: Verconica persica (VERPE); assay: Post-emergence herbicidal action against VERPE
Method in brief: as §2

Viola tricolor (VIOTR) [21] = assay: Post-emergence herbicidal action against VIOTR
Method in brief: as §2

Oryza sativa (ORYSA) = conditions: crop plant compatibility, effect in comparison to untreated controls
Method in brief: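 Visual rating (% effect vs. untreated plants; 100% = plant death) made about 3 weeks after treatment. Plants had been sprayed at one-leaf stage, 2–3 weeks post-sowing, with aqueous WP/EC preparations containing 0.5% additive, 600 l/ha water volume; a, b, c mark dose levels.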

[22] = system: Matricaria inodora (MATIN); assay: Pre-emergence herbicidal action against MATIN
Method in brief: as §1

Setaria viridis (SETVI) [23] = assay: Pre-emergence herbicidal action against SETVI
Method in brief: as §1

[24] = 80 g/ha, visual rating about 3 weeks after treatment vs untreated controls (100% = plants have died, 0% = like control plants)
[25] = 320 g/ha, visual rating about 3 weeks after treatment

| Structure (SMILES) | Pre-emergence action against ABUTH [1] [%] | Pre-emergence action against ALOMY ([2]; 320 g/ha) [%] | Pre-emergence action against AMARE in % ([3]; 80 g/ha) [%] | Pre-emergence action against AMARE in % ([3]; 320 g/ha) [%] | Pre-emergence action against AVEFA in % (Avena fatua (AVEFA) [4]; 320 g/ha) [%] | Pre-emergence action against ECHCG in % ([5]; dosage 320 g/ha) [%] | Pre-emergence action against LOLRI in % (Lolium rigidum (LOLRI) [6]; dosage 80 g/ha) [%] | Pre-emergence action against LOLRI in % (Lolium rigidum (LOLRI) [6]; dosage 320 g/ha) [%] | Pre-emergence action against PHBPU in % ([7]; dosage 320 g/ha) [%] | Pre-emergence action against POLCO in % ([8]; dosage 80 g/ha) [%] | Pre-emergence action against POLCO in % ([8]; dosage 320 g/ha) [%] | Pre-emergence action against VERPE in % ([9]; dosage 320 g/ha) [%] | Pre-emergence action against VIOTR in % (Viola tricolor (VIOTR) [10]; 320 g/ha, Viola tricolor) [%] | Pre-emergence action against VIOTR in % (Viola tricolor (VIOTR) [10]; dosage 80 g/ha) [%] | Post-emergence action against ALOMY in % ([12]; 320 g/ha) [%] | Post-emergence action against AVEFA in % (Avena fatua (AVEFA) [14]; 320 g/ha) [%] | Post-emergence action against ECHCG in % ([15]; dosage 320 g/ha) [%] | Post-emergence action against LOLRI in % (Lolium rigidum (LOLRI) [16]; dosage 80 g/ha) [%] | Post-emergence action against LOLRI in % (Lolium rigidum (LOLRI) [16]; dosage 320 g/ha) [%] | Post-emergence action against PHBPU in % ([17]; dosage 80 g/ha) [%] | other results |
| --- | --- | --- | --- | --- | --- | --- | --- | --- | --- | --- | --- | --- | --- | --- | --- | --- | --- | --- | --- | --- | --- |
| COC(=O)CCOC(=O)[C@@H](C)Oc1nn(-c2ccccn2)c(-c2ccc(F)nc2)c1Cl [Example I-340] | 80 | 100 | 90 | 100 | 90 | 100 | 100 | 100 | 80 | 80 | 90 | 100 | 100 | 100 | 100 | 90 | 90 | 90 | 90 | 90 | Pre-emergence action against AVEFA in % (Avena fatua (AVEFA) [4]; 80 g/ha): 80%; Post-emergence action against ABUTH in % [11]: 80%; Post-emergence action against ALOMY in % ([12]; 80 g/ha): 90%; Post-emergence action against AMARE in % [13, 24]: 80%; Post-emergence action against AMARE in % [13, 25]: 90%; Post-emergence action against AVEFA in % (Avena fatua (AVEFA) [14]; 80 g/ha): 90%; Post-emergence action against ECHCG in % ([15]; dosage 80 g/ha): 80%; Post-emergence action against PHBPU in % ([17]; dosage 320 g/ha): 90%; Post-emergence action against POLCO in % [18]: 90%; Post-emergence action against SETVI in % (Setaria viridis (SETVI) [19]; dosage 80 g/ha): 80%; Post-emergence action against SETVI in % (Setaria viridis (SETVI) [19]; dosage 320 g/ha): 90%; Post-emergence action against VERPE in % ([20]; 320 g/ha, VERPE): 90%; Post-emergence action against VERPE in % ([20]; dosage 80 g/ha): 80%; Post-emergence action against VIOTR in % (Viola tricolor (VIOTR) [21]; 80 g/ha): 90%; Post-emergence action against VIOTR in % (Viola tricolor (VIOTR) [21]; 320 g/ha): 90%; Post-emergence action against ORYSA in % (Oryza sativa (ORYSA); 80 g/ha): 0%; Post-emergence action against ORYSA in % (Oryza sativa (ORYSA); 320 g/ha): 0% |
| CCOC(=O)[C@@H](C)Oc1nn(-c2nc(F)ccc2F)c(-c2cncc(F)c2)c1Br [Example I-388] | 90 | 100 | 90 | 100 | 90 | 100 | 80 | 100 | 90 | 90 | 90 | 100 | 100 | 100 | 80 | 80 | 90 | 80 | 80 | 80 | Pre-emergence action against ALOMY ([2]; 80 g/ha): 80%; Pre-emergence action against ECHCG in % ([5]; dosage 80 g/ha): 80%; Pre-emergence action against MATIN in % ([22]; dosage 80 g/ha): 90%; Pre-emergence action against MATIN in % ([22]; dosage 320 g/ha): 90%; Pre-emergence action against PHBPU in % ([7]; dosage 80 g/ha): 90%; Pre-emergence action against SETVI in % (Setaria viridis (SETVI) [23]; dosage 80 g/ha): 90%; Pre-emergence action against SETVI in % (Setaria viridis (SETVI) [23]; dosage 320 g/ha): 100%; Pre-emergence action against VERPE in % ([9]; dosage 80 g/ha): 90%; Post-emergence action against ABUTH in % [11]: 80%; Post-emergence action against ECHCG in % ([15]; dosage 80 g/ha): 90%; Post-emergence action against PHBPU in % ([17]; dosage 320 g/ha): 100%; Post-emergence action against SETVI in % (Setaria viridis (SETVI) [19]; dosage 80 g/ha): 90%; Post-emergence action against SETVI in % (Setaria viridis (SETVI) [19]; dosage 320 g/ha): 90%; Post-emergence action against VERPE in % ([20]; 320 g/ha, VERPE): 80%; Post-emergence action against VERPE in % ([20]; dosage 80 g/ha): 80%; Post-emergence action against VIOTR in % (Viola tricolor (VIOTR) [21]; 320 g/ha): 80% |
| C[C@@H](Oc1nn(-c2ccccn2)c(-c2cncnc2)c1Cl)C(=O)O [Example I-20] | 90 | 100 | 100 | 100 | 100 | 100 | 100 | 100 | 90 | 90 | 100 | 100 | 100 | 100 | 100 | 90 | 80 | 90 | 90 | 90 | Pre-emergence action against ALOMY ([2]; 80 g/ha): 90%; Pre-emergence action against AVEFA in % (Avena fatua (AVEFA) [4]; 80 g/ha): 90%; Pre-emergence action against MATIN in % ([22]; dosage 320 g/ha): 100%; Pre-emergence action against SETVI in % (Setaria viridis (SETVI) [23]; dosage 320 g/ha): 100%; Post-emergence action against ALOMY in % ([12]; 80 g/ha): 100%; Post-emergence action against AMARE in % [13, 24]: 90%; Post-emergence action against AMARE in % [13, 25]: 90%; Post-emergence action against AVEFA in % (Avena fatua (AVEFA) [14]; 80 g/ha): 90%; Post-emergence action against PHBPU in % ([17]; dosage 320 g/ha): 90%; Post-emergence action against POLCO in % [18]: 80%; Post-emergence action against SETVI in % (Setaria viridis (SETVI) [19]; dosage 320 g/ha): 90%; Post-emergence action against VERPE in % ([20]; 320 g/ha, VERPE): 80%; Post-emergence action against VIOTR in % (Viola tricolor (VIOTR) [21]; 80 g/ha): 90%; Post-emergence action against VIOTR in % (Viola tricolor (VIOTR) [21]; 320 g/ha): 90% |
